System: SW620 colon cancer cells
Assay: Colony growth of SW620 colon cancer cells
Assay type: cell-based
Experimental: However, PQ3 has an opposite effect on mammary cancer cell lines. […] A summary of PQ-mediated GJIC activity and colony growth in breast and colon cancer cells is presented in Tables 1, 2, and 3, as well as FIGS. 10-13. In FIG. 10, SW620 cells were dosed for 24 hours with PQ1 at 100, 200, 300, and 500 nM. The gap junction activity was measured as a percent of control, as previously described. It was seen that all concentrations on PQ1 increased the gap junction activity in SW620 colon cancer cells as compared to the control. In FIG. 11, the effect of PQ1 on the expression of PKCγ was studied at concentrations of 100, 200, 300 and 500 nM PQ1 for 24 hours. It is seen in FIG. 11 that PQ1 has no effect on the expression of PKCγ at the levels tested. In FIGS. 12 and 13, the effect of PQ1 on the colony growth of SW620 colon cancer cells was measured with 1-100 nM PQ1 (FIG. 12) and 10 uM PQ1 (FIG. 13).
Colony Growth Assay: T47D human breast cancer cells were treated with PQ1. Base agar plates were prepared containing 0.8% agar and 0.4% agar in Ham's F12. Cells (5×10^4 cells/33 mm2 well) were suspended in 100 μl of Ham's F12 with 0.4% agar and plated. These plates were maintained at 37° C. for 7 days and examined for the presence of colonies. Individual colonies of 40 um or greater were examined.

## COc1cc(NCCCN)c2nccc(C)c2c1Oc1cccc(C(F)(F)F)c1.O=C(O)CCC(=O)O [PQ1, 6-Methoxy-8-[(3-aminopropyl)amino]-4-methyl-5-(3-trifluoromethylphenyloxy) quinoline succinic acid]
10 uM
  colony growth: completely inhibits
1-100 nM
  colony growth: no effect

From patent publication US8809368B2, “Compounds affecting gap junction activity” (Kansas State University Research Foundation, priority 2006, dated 2014)
